We go through five compounds from patent US5449672A, “Alkylaminoalkylpyrrolidinylthiocarbapenem derivatives” (Banyu Pharmaceutical Co., Ltd., priority 1991, dated 1995).

In brackets after ≈: the same amount, converted by molar mass. Where two headings read alike, the source gives them in different places. Bounds are passed on as bounds.

Data set [1] deals with P. aeruginosa MB5178. As to the kind of experiment: Minimum inhibitory concentration (MIC), agar plate dilution method, P. aeruginosa MB5178. The data set is classed as cell-based. Conditions: Pseudomonas aeruginosa, read-out: Minimum Inhibitory Concentration (MIC). The procedure:
(§1) One platinum loopful of each test microorganism incubated overnight in Mueller Hinton broth, was inoculated to Mueller Hinton agar (inoculum size: 10^6 CFU/ml). Such culture media contained antibacterial agents in various concentrations. After incubation at 37° C. for 16 hours, the minimum inhibitory concentrations (MIC: μg/ml) were measured. Further, the DHP-I susceptibility was quantitatively analyzed by the method by Kropp et al. (Antimicrob. Agents Chemother., vol. 22, p. 62-70 (1982)), whereby the smaller the numerical value representing the ratio to imipenem (=1.0), the higher the stability.
(§2) The minimum inhibitory concentrations and the DHP-I susceptibility of the compounds of the present invention were compared with imipenem and the compound of REFERENCE EXAMPLE 4.

The test system of data set [2] is DHP-I (renal dehydropeptidase I). As to the kind of experiment: DHP-I susceptibility, method by Kropp et al. The data set is classed as in vitro ADME. Particulars: ratio to imipenem (=1.0); the smaller the value, the higher the stability. The procedure: as §1, §2
The test system of data set [3] is P. aeruginosa MB5002. As to the kind of experiment: Minimum inhibitory concentration (MIC), agar plate dilution method, P. aeruginosa MB5002. Conditions: Pseudomonas aeruginosa, read-out: Minimum Inhibitory Concentration (MIC). The data set is classed as cell-based. The protocol: as §1, §2
The conditions of data set [4]: due to the decomposition products; cited from earlier work.
For data set [5], the system named is gram positive bacteria and gram negative bacteria. Particulars: literature, in words; cited from earlier work.
The subject of data set [6] is β-lactamase. Conditions: literature, in words; cited from earlier work.
The conditions of data set [7]: cited from earlier work.
Data set [8] has as its system DHP-I. Conditions: in vivo; human kidney for imipenem; cited from earlier work.
Data set [9] has as its system Methicillin resistant Staphylococcus aureus and resistant Pseudomonas aeruginosa. Conditions: prior-art compounds; highly methicillin resistant S. aureus and resistant P. aeruginosa; cited from earlier work.
For data set [10] the following is noted: in words; cited from earlier work.
Setting [11] is: P. aeruginosa MB5178, Mueller Hinton agar, inoculum 10^6 CFU/ml, 37° C., 16 hours.
[12] abbreviates: P. aeruginosa MB5002, Mueller Hinton agar, inoculum 10^6 CFU/ml, 37° C., 16 hours.

For `CNCC[C@@H]1C[C@H](SC2=C(C(=O)O)N3C(=O)[C@H]([C@@H](C)O)[C@H]3[C@H]2C)CN1` [Example 1, (1R,5S,6S)-6-[(R)-1-Hydroxyethyl]-1-methyl-2-[(2R,4S)-2-[2-(methylamino)ethyl]pyrrolidin-4-ylthio]-1-carbapen-2-em-3-carboxylic Acid], the MIC was 3.13 µg/mL (≈ 8.47 µM) in data set [1] (setting [11]) and 0.78 µg/mL (≈ 2.11 µM) in data set [3] (setting [12]). Besides, in [2], the DHP-I susceptibility is listed as under 0.05.
For `CNCCC[C@@H]1C[C@H](SC2=C(C(=O)O)N3C(=O)[C@H]([C@@H](C)O)[C@H]3[C@H]2C)CN1.Cl` [Example 3, (1R,5S,6S)-6-[(R)-1-Hydroxyethyl]-1-methyl-2-[(2R,4S)-2-[3-(methylamino)propyl]pyrrolidin-4-ylthio]-1-carbapen-2-em-3-carboxylic acid Monohydrochloride], the MIC in [1] (setting [11]) was found to be 3.13 µg/mL; in data set [3] (setting [12]), 0.78 µg/mL. Besides, the DHP-I susceptibility in data set [2] stood at 0.07.
As for `C[C@@H](O)[C@H]1C(=O)N2C(C(=O)O)=C(SCCN=CN)C[C@H]12` [Imipenem, (5R,6S,8R)-3-[[2-(formimidoylamino)ethyl]thio]-6-(1-hydroxyethyl)-7-oxo-1-azabicyclo[3.2.0]hept-2-en-2-carboxylic acid monohydrate], the “toxicity against the kidney” value in [4] was “presents toxicity against the kidney due to the decomposition products”. Moreover, the MIC came out at 25 µg/mL in data set [1] (MB5178, 16 h) and 1.56 µg/mL in data set [3] (MB5002, 16 h). In [2], the DHP-I susceptibility was determined as 1.0. Besides, the antibacterial activities result in data set [5] is on record as “antibacterial activities of an equal or higher level than thienamycin against various types of bacteria”. In addition, in [6], the β-lactamase resistance result is listed as “has β-lactamase resistance”. The “stability in the solid form or in an aqueous solution” value in data set [7] (relative to thienamycin) is “remarkably improved over thienamycin”. Also, in data set [8], the “decomposition by renal dehydropeptidase I (DHP-I)” value is given as “likely to be decomposed by DHP-I in the human kidney”. The “treating effects / antibacterial activities against resistant bacteria” value in data set [9] is recorded as “does not show adequate treating effects against these resistant bacteria”.
Consider `C[C@@H](O)[C@H]1C(=O)N2C(C(=O)O)=C(SCCN)C[C@H]12` [Thienamycin], for which the “recovery rate in the urine” value in data set [10] is “low”. Moreover, the antibacterial activities entry in [5] is “strong antibacterial activities over a wide range against gram positive bacteria and gram negative bacteria”. Moreover, the chemical stability entry in [7] (literature, in words) is on record as “chemically unstable”. Further, the “decomposition by renal dehydropeptidase I (DHP-I)” value in [8] was “likely to be decomposed by a certain enzyme in vivo such as renal dehydropeptidase I”.
Consider `CC(=O)NC[C@@H]1C[C@H](SC2=C(C(=O)O)N3C(=O)[C@H]([C@@H](C)O)[C@H]3[C@H]2C)CN1` [compound 1, (1R,5S,6S)-2-[(2S,4S)-2-(Acetylaminomethyl)pyrrolidin-4-ylthio]-6-[(R)-1-hydroxyethyl]-1-methyl-1-carbapen-2-em-3-carboxylic Acid], for which the figures for the MIC in data set [1] (setting [11]) and in data set [3] (setting [12]) were 12.5 µg/mL (≈ 32.6 µM) and 6.25 µg/mL (≈ 16.3 µM), respectively. Also, the DHP-I susceptibility in data set [2] is 0.7.
